# Measurements from US20160052926A1, “NOVEL PYRIMIDINE AND PYRIDINE COMPOUNDS AND USAGE THEREOF” (HUTCHISON MEDIPHARMA LIMITED, priority 2013, published 2016).
# Legend:
# SNU-16 = assay: Cellular Proliferation Assay (Cell Counting Kit-8), SNU-16; assay type: cell-based; details: Homo sapiens, SNU-16 cells, 72 hours
# In short: (§1)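 Seeding was 30,000 (KG-1), 5,000 (SNU-16) or 1,000 (RT-112) cells per well, with compound added 24 h later. Dilutions were prepared as an 8-point series of 10 to 0.004 μM in 5% DMSO, before addition to wells.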
# Recombinant human FGFR1 = Recombinant human FGFR1 (Homo sapiens, UniProt P11362); assay: Transcreener Kinase Assay of FGFR1; assay type: biochemical; details: read-out: FGFR1 (FP) IC50
# Sequence of Recombinant human FGFR1 (P11362 22-822): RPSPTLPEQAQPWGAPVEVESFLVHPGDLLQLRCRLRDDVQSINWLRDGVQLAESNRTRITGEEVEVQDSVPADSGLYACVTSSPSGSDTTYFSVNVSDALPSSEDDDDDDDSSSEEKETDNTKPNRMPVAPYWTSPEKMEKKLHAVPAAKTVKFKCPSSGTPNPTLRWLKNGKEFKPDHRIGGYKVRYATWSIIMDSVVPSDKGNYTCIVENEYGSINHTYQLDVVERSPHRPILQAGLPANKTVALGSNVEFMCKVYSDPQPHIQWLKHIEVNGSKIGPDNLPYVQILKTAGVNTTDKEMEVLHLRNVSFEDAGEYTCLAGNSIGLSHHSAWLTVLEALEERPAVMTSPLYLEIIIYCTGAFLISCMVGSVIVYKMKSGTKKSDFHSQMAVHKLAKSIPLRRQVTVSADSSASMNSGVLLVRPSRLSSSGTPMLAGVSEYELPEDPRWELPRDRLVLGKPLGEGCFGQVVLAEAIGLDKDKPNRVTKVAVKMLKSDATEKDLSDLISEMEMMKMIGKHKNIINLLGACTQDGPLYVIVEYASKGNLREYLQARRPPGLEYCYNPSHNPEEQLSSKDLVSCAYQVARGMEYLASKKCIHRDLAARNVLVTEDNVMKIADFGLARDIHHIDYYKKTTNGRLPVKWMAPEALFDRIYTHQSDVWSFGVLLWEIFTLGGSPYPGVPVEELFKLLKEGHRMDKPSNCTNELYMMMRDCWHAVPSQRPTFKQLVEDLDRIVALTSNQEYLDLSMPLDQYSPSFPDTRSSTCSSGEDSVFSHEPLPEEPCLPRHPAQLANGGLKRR
# Recombinant human FGFR2 = Recombinant human FGFR2 (Homo sapiens, UniProt P21802); assay: Transcreener Kinase Assay of FGFR2; assay type: biochemical; details: read-out: FGFR2 (FP) IC50
# Sequence of Recombinant human FGFR2 (P21802 22-821): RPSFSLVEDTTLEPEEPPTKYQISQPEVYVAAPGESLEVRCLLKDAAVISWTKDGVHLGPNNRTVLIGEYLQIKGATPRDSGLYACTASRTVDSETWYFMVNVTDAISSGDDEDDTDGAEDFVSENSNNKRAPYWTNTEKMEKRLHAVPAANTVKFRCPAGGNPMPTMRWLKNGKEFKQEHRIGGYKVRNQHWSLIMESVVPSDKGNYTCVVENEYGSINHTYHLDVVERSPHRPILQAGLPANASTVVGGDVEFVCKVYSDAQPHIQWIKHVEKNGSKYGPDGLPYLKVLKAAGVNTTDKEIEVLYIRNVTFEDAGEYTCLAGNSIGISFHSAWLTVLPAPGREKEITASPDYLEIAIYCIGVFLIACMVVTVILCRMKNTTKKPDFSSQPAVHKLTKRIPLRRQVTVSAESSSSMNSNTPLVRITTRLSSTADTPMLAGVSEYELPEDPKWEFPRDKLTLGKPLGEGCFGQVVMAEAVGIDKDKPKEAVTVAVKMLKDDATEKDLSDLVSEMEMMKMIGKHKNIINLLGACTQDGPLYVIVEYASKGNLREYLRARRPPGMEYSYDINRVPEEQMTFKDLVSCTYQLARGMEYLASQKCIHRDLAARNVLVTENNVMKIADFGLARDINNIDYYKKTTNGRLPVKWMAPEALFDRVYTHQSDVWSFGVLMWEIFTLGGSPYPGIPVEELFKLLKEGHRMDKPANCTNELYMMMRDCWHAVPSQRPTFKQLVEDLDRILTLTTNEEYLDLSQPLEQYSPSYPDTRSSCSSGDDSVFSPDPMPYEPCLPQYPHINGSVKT
# RT-112 = assay: Cellular Proliferation Assay (Cell Counting Kit-8), RT-112; assay type: cell-based; details: Homo sapiens, RT-112 cells, 72 hours
# Description: Cellular Proliferation Assay
# • KG-1 (ATCC Accession No. CCL-246), • SNU-16 (ATCC Accession No. CRL-5974), • RT-112 (ECACC Accession No. 85061106)
# • FGFR related cancer cell proliferation is measured in 96-well plates using Cell Counting Kit-8 (Dojindo CK04-13). • Seed 30000 cells/well of KG1, 5000 cells/well of SNU16, and 1000 cells/well of RT112 in a volume of 100 μL/well in growth media. • After 24 hours, dilute the compound to 10, 3.3, 1.1, 0.37, 0.12, 0.04, 0.013, 0.004 μM, keeping the DMSO concentration at 5%. • Add 10 μL of 8-point compound series to the wells of culturing cells. • Incubate at 37° C. and 5% CO2 for 72 hours • Add 10 μL/well of CCkit8 and incubate at 37° C. and 5% CO2 for an hour • Detect the optical density of each well at 450 nm on Labsystems Multiskan K3.
# • ODcompound well represents the optical density of cells treated with compound. • ODcell well represents the optical density of cells without compounds treatment. (only 0.5% DMSO) • ODcontrol well represents the optical density of culture media background
# The concentration of compound providing 50% of proliferation inhibition was calculated using Excel Fit.
# KG-1 = assay: Cellular Proliferation Assay (Cell Counting Kit-8), KG-1; assay type: cell-based; details: Homo sapiens, KG1 cells, 72 hours
# In short: as §1
# FGFR3 kinase = FGFR3 kinase (Homo sapiens, UniProt P22607); assay: Z-Lyte Kinase Assay of FGFR3; assay type: biochemical
# Sequence of FGFR3 kinase (P22607 23-806): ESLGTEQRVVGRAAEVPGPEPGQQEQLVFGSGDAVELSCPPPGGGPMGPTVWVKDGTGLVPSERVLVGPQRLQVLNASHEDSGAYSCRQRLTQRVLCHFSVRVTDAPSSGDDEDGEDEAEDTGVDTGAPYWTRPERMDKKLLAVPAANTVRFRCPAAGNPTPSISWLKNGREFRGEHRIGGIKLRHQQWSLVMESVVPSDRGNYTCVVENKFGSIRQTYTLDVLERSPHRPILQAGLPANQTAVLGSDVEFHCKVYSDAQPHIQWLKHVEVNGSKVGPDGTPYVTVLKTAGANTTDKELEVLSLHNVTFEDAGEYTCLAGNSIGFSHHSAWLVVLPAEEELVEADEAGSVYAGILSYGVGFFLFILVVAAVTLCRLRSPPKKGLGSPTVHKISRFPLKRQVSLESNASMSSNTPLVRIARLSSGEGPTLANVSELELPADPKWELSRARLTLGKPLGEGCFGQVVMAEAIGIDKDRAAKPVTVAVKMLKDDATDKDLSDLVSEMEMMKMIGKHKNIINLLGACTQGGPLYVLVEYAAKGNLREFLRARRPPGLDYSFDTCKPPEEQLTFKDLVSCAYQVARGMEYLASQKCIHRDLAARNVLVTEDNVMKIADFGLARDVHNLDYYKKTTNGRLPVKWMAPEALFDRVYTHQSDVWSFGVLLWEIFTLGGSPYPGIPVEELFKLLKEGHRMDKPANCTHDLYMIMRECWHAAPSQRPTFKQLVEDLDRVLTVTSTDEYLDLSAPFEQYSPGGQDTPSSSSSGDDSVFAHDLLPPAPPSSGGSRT
# In short: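 Kinase at 0.7 μg/ml with 4 μM Z-LYTE Tyr 4 peptide and ATP diluted to 300 uM (working solution, 1.33× buffer); compounds 1–0.00046 μM, 2% DMSO final. Kinase reaction and development each 1 h at RT (25-30[…]); coumarin (445 nm) and fluorescein (520 nm) emission read, inhibition from % phosphorylation.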
Structure (SMILES),IC50 (SNU-16),IC50 (Recombinant human FGFR1),IC50 (Recombinant human FGFR2),IC50 (RT-112),IC50 (KG-1),IC50 (FGFR3 kinase)
CCN1CCN(c2cc(Nc3ncc(CCc4cc(OC)cc(C(=O)NOC)c4)cn3)ccn2)CC1 [Compound 76],16 nM,5 nM,4 nM,67 nM,43 nM,8 nM
"CNC(=O)c1cc(CCc2cnc(Nc3ccc(N4C[C@@H](C)N[C@@H](C)C4)cc3)nc2)c(Cl)c(OC)c1 [Compound 79, 4-chloro-3-(2-(2-((4-((3S,5R)-3,5-dimethylpiperazin-1-yl)phenyl)amino)pyrimidin-5-yl)ethyl)-5-methoxy-N-methylbenzamide]",14 nM,6 nM,6 nM,34 nM,13 nM,6 nM
CCn1cc(Nc2ncc(CCc3c(F)c(C(=O)NC)cc(OC)c3Cl)cn2)cn1 [Compound 80],39 nM,24 nM,16 nM,24 nM,33 nM,19 nM
CNC(=O)c1cc(CCc2cnc(Nc3cnn(C4CCC4)c3)nc2)c(Cl)c(OC)c1 [Compound 81],25 nM,8 nM,5 nM,10 nM,16 nM,11 nM
CCn1cc(Nc2ncc(CCc3cc(C(=O)NC)cc(OC)c3Br)cn2)cn1 [Compound 83],55 nM,15 nM,9 nM,201 nM,53 nM,35 nM
CNC(=O)c1cc(CCc2cnc(Nc3ccc4c(C)n(C)nc4c3)nc2)c(Cl)c(OC)c1 [Compound 84],239 nM,19 nM,7 nM,122 nM,248 nM,16 nM
CNC(=O)c1cc(CCc2cnc(Nc3ccc(N4CCOCC4)cc3)nc2)c(Cl)c(OC)c1 [Compound 85],93 nM,15 nM,9 nM,26 nM,30 nM,17 nM
CCN(CC)CCn1cc(Nc2ncc(CCc3cc(C(=O)NC)cc(OC)c3Cl)cn2)cn1 [Compound 86],16 nM,17 nM,10 nM,12 nM,42 nM,10 nM
CCN1CCN(c2ccc(Nc3ncc(/C=C/c4cc(C(=O)NC)cc(OC)c4F)cn3)cc2)CC1 [Compound 87],50 nM,10 nM,10 nM,84 nM,25 nM,36 nM
CCN(CC)CCCn1cc(Nc2ncc(CCc3cc(C(=O)NC)cc(OC)c3Cl)cn2)cn1 [Compound 88],13 nM,15 nM,6 nM,27 nM,214 nM,9 nM
CNC(=O)c1cc(CCc2cnc(Nc3cnn(CCN4CCN(C)CC4)c3)nc2)c(Cl)c(OC)c1 [Compound 89],29 nM,12 nM,8 nM,46 nM,130 nM,8 nM
CNC(=O)c1cc(CCc2cnc(Nc3ccc(C(=O)N4CCN(C)CC4)cc3)nc2)c(Cl)c(OC)c1 [Compound 90],9 nM,11 nM,5 nM,26 nM,31 nM,7 nM
CNC(=O)c1cc(OC)c(Cl)c(CCc2cnc(Nc3ccc(N4C[C@@H](C)N[C@@H](C)C4)cc3)nc2)c1F [Compound 91],19 nM,20 nM,16 nM,64 nM,32 nM,17 nM
"CNC(=O)c1cc(CCc2cnc(Nc3ccc(CN4CCOCC4)cn3)nc2)c(F)c(OC)c1 [Compound 92, 4-fluoro-3-methoxy-N-methyl-5-(2-(2-((5-(morpholinomethyl)pyridin-2-yl)amino)pyrimidin-5-yl)ethyl)benzamide]",238 nM,164 nM,40 nM,831 nM,255 nM,198 nM
CNC(=O)c1cc(CCc2cnc(Nc3cnc4ccnn4c3)nc2)c(F)c(OC)c1 [Compound 94],170 nM,161 nM,53 nM,287 nM,344 nM,213 nM
CNC(=O)c1cc(CCc2cnc(Nc3ccc4ncnn4c3)nc2)c(F)c(OC)c1 [Compound 95],33 nM,34 nM,12 nM,72 nM,44 nM,33 nM

Structure (SMILES),IC50 (SNU-16),IC50 (Recombinant human FGFR1),IC50 (Recombinant human FGFR2),IC50 (RT-112),IC50 (KG-1),IC50 (FGFR3 kinase)
CNC(=O)c1cc(CCc2cnc(Nc3ccc(CN4CCOCC4)cc3)nc2)c(F)c(OC)c1 [Compound 97],22 nM,11 nM,6 nM,159 nM,26 nM,12 nM
CNC(=O)c1cc(CCc2cnc(Nc3ccc(CN4CCOCC4)nc3)nc2)c(F)c(OC)c1 [Compound 98],24 nM,32 nM,15 nM,225 nM,48 nM,26 nM
CNC(=O)c1cc(CCc2cnc(Nc3ccc(CN4CCN(C)CC4)cc3)nc2)c(F)c(OC)c1 [Compound 99],17 nM,14 nM,7 nM,110 nM,30 nM,12 nM
"CCn1cc(Nc2ncc(CCc3cc(C(=O)NC)cc(OC)c3F)cn2)cn1 [Compound 100, 3-(2-(2-(1-ethyl-1H-pyrazol-4-ylamino)pyrimidin-5-yl)ethyl)-4-fluoro-5-methoxy-N-methylbenzamide]",24 nM,12 nM,5 nM,94 nM,21 nM,13 nM
CONC(=O)c1cc(CCc2cnc(Nc3cn[nH]c3)nc2)cc(OC)c1 [Compound 101],42 nM,8 nM,4 nM,257 nM,22 nM,15 nM
CNC(=O)c1cc(CCc2cnc(Nc3cn[nH]c3)nc2)c(F)c(OC)c1 [Compound 102],55 nM,12 nM,7 nM,461 nM,33 nM,18 nM
CNC(=O)c1cc(CCc2ccc(Nc3cnn(C)c3)nc2)c(F)c(OC)c1 [Compound 103],139 nM,32 nM,21 nM,659 nM,138 nM,47 nM
CONC(=O)c1cc(CCc2cnc(Nc3ccc(F)cc3)nc2)cc(OC)c1 [Compound 104],38 nM,15 nM,9 nM,142 nM,53 nM,44 nM
CNC(=O)c1cc(CCc2cnc(Nc3cnn(C)c3C)nc2)c(F)c(OC)c1 [Compound 105],48 nM,31 nM,11 nM,428 nM,201 nM,30 nM
CNC(=O)c1cc(CCc2cnc(Nc3cnn(C4CC4)c3)nc2)c(F)c(OC)c1 [Compound 107],26 nM,10 nM,7 nM,90 nM,28 nM,14 nM
CONC(=O)c1cc(CCc2cnc(Nc3cnn(CCO)c3)nc2)cc(OC)c1 [Compound 108],112 nM,5 nM,3 nM,562 nM,110 nM,10 nM
CCn1ncc(Nc2ncc(CCc3cc(C(=O)NC)cc(OC)c3F)cn2)c1C [Compound 110],46 nM,68 nM,14 nM,197 nM,95 nM,24 nM
CCn1cc(Nc2ncc(CCc3cc(C(=O)NC)cc(OC)c3F)cn2)c(C)n1 [Compound 111],127 nM,107 nM,33 nM,570 nM,162 nM,61 nM
CNC(=O)c1cc(CCc2cnc(Nc3cnn(C(C)C)c3)nc2)c(F)c(OC)c1 [Compound 112],17 nM,9 nM,7 nM,36 nM,18 nM,8 nM
CNC(=O)c1cc(CCc2cnc(Nc3cnn(CCO)c3)nc2)c(F)c(OC)c1 [Compound 114],88 nM,12 nM,5 nM,591 nM,71 nM,14 nM
